CN/C(=C\[N+](=O)[O-])NCCSCc1csc(CN(C)C)n1
solubility (mole fraction)
Settings	in acetone	in ethanol	in ethyl acetate	in methanol	in water
273.15 K	0.00283	0.00287	0.00029	0.0167	0.0225
278.15 K	0.0034	0.00381	0.00033	0.0211	0.0232
283.15 K	0.00432	0.00487	0.00043	0.027	0.0238
288.15 K	0.00552	0.00653	0.00058	0.0347	0.0247
293.15 K	0.00701	0.00867	0.00063	0.0447	0.0257
298.15 K	0.00806	0.0133	0.00082	0.0589	0.0297
303.15 K	0.0103	0.0167	0.00093	0.0765	0.0325
308.15 K	0.0128	0.0212	0.00148	0.103	0.036
313.15 K	0.0164	0.0301	0.00187	0.147	0.0402
318.15 K	0.0235	0.0376	0.00219	0.203	0.0463
323.15 K	0.0385	0.062	0.00269	–	0.0535
328.15 K	–	0.0955	0.00343	–	0.0653
333.15 K	–	0.179	0.0042	–	0.0809
338.15 K	–	–	0.0055	–	0.109
343.15 K	–	–	–	–	0.164
